From PMC11787888, “Development and confirmation of humanized plasma and epithelial lining fluid exposures of meropenem, cefiderocol and tobramycin in a standardized neutropenic murine pneumonia model” (Journal of Antimicrobial Chemotherapy, 2024)
Where two headings read alike, the source gives them in different places.

Tests used:
[1] = ELF pharmacokinetics in the COMBINE murine neutropenic pneumonia model
Protocol: (§1) The model followed the COMBINE protocol with laboratory-specific detailed methods as follows.[6] Specific pathogen free CD-1, female mice 6–8 weeks old were acquired from Charles River Laboratories, Inc. (Raleigh, NC, USA). All animals were allowed to acclimatize for 72 h before any study procedures and were housed as groups of six at controlled room temperature in HEPA-filtered cages (Innovive, San Diego, CA, USA). Study rooms were maintained with diurnal cycles (12 h light/12 h dark) and food and water were provided ad libitum.
(§2) Neutropenia was achieved through 0.2 mL intraperitoneal (IP) administrations of cyclophosphamide 150 mg/kg on day minus 4 and an additional 100 mg/kg on day minus 1. A predictable degree of renal impairment was produced using 5 mg/kg of uranyl nitrate (Electron Microscopy Sciences, Hatfield, PA, USA) dissolved in sterile water administered as a 0.2 mL IP injection on day minus 3. […] Mice were anaesthetised using inhaled isoflurane, manually restrained upright and infected with 50 µL of bacterial suspension via the nares. Each bacterial inoculation suspension was used within 30 minutes of initial preparation.
(§3) The purpose of these studies was to establish HSRs in both plasma and ELF in the COMBINE murine neutropenic pneumonia model equivalent to clinical doses of meropenem (2 g every 8 h as 3 h infusion),[9] cefiderocol (2 g every 8 h as 3 h infusion)[10] and tobramycin (7 mg/kg as 0.5 h infusion)[11–13] based on unbound (free) exposures.
(§4) At predefined timepoints (shown in Figures 1–3), groups of six mice had blood sampled via retro-orbital bleeding (two time points, under anaesthesia with isoflurane 2%–3% v/v in 100% oxygen via inhalation) and/or cardiac puncture (one terminal time point). Proparacaine hydrochloride ophthalmic solution 0.5% was applied to the eye (1–2 drops) after blood sampling via retro-orbital bleeding. The volume of blood collected was 0.15 mL per sample via retro-orbital bleeding with subsequent fluid replacement using 0.2 mL normal saline given IP. Mice were euthanized by CO2 exposure before cardiac puncture. Following blood collection by cardiac puncture, but before cervical dislocation, bronchoalveolar lavage (BAL) fluid was collected from the mice at the same time points. A catheter was inserted into the trachea of the mice, and lungs were lavaged with four separate aliquots of 0.4 mL of normal saline. The BAL fluid was withdrawn immediately after injection and pooled for each animal. Pooled BAL was centrifuged for 10 min at 4°C and the supernatant was collected for analysis.
(§5) Drug concentrations in ELF were estimated by correcting the drug concentration in BAL fluid for the dilution with normal saline during lung lavage using the following formula: compoundELF = compoundBAL × (ureaplasma/ureaBAL), where compoundBAL is the measured drug concentration in the BAL fluid sample and ureaplasma and ureaBAL are the concentrations of urea in paired plasma and BAL fluid samples from each mouse, respectively. Owing to the lack of albumin in BAL fluid, total ELF concentrations were considered unbound.
(§6) Statistical outliers for each respective analyte were removed by the interquartile range method. Previously reported meropenem, cefiderocol and plazomicin (an aminoglycoside similar to tobramycin) plasma HSRs developed in alternative murine models were used as a baseline.[19],[20] Mathematical modifications were made to the baseline regimens as necessary to achieve translational exposures in the COMBINE model and repeat confirmatory PK studies were undertaken for both plasma and ELF.

[2] = human plasma, 2 g every 8 h as a 3 h infusion; cited from earlier work
[3] = set-up: method as in PMID 33371322, PMID 31724042, PMID 15107149; conditions: cited from earlier work
[4] = Plasma pharmacokinetics in the COMBINE murine neutropenic pneumonia model
Protocol: as §1, §2, §3, §4, §5, §6

[5] = set-up: method as in PMID 17283197, PMID 28848004; conditions: murine plasma, previously determined; cited from earlier work
[6] = mouse ELF, best-fit one-compartment model
[7] = mouse plasma, best-fit one-compartment model

k el ([1]; female, CD-1, mouse, epithelial lining fluid (ELF), sc): 0.0002 s⁻¹ | %fT > MIC for a MIC of 1 µg/mL ([1]; mouse ELF, ELF HSR): 100% | %fT > MIC for a MIC of 2 µg/mL ([1]; mouse ELF, ELF HSR): 100% | %fT > MIC for a MIC of 4 µg/mL ([1]; mouse ELF, ELF HSR): 85% | %fT > MIC for a MIC of 8 µg/mL ([1]; mouse ELF, ELF HSR): 50% | %fT > MIC for a MIC of 16 µg/mL ([1]; mouse ELF, ELF HSR): 14% | %fT > MIC for a MIC of 32 µg/mL ([1]; mouse ELF, ELF HSR): 0% | %fT > MIC for a MIC of 64 µg/mL ([1]; mouse ELF, ELF HSR): 0% | %fT > MIC for a MIC of 128 µg/mL ([1]; mouse ELF, ELF HSR): 0% | K a-ELF (absorption rate constant into ELF compartment) [1, 6]: 1.94 h⁻¹ | V ELF (volume of distribution in ELF compartment) [1, 6]: 0.33 L/kg | k el ([4]; female, CD-1, mouse, plasma, sc): 0.000206 s⁻¹ | K a (absorption rate constant into central compartment) [4, 7]: 21.71 h⁻¹ | V plasma (volume of distribution in central compartment) [4, 7]: 0.19 L/kg | %fT > MIC for a MIC of 1 µg/mL ([4]; mouse plasma, plasma HSR): 100% | %fT > MIC for a MIC of 2 µg/mL ([4]; mouse plasma, plasma HSR): 100% | %fT > MIC for a MIC of 4 µg/mL ([4]; mouse plasma, plasma HSR): 91% | %fT > MIC for a MIC of 8 µg/mL ([4]; mouse plasma, plasma HSR): 76% | %fT > MIC for a MIC of 16 µg/mL ([4]; mouse plasma, plasma HSR): 50% | %fT > MIC for a MIC of 32 µg/mL ([4]; mouse plasma, plasma HSR): 16% | %fT > MIC for a MIC of 64 µg/mL ([4]; mouse plasma, plasma HSR): 0% | %fT > MIC for a MIC of 128 µg/mL ([4]; mouse plasma, plasma HSR): 0%
Compound: CC(C)(O/N=C(\C(=O)N[C@@H]1C(=O)N2C(C(=O)[O-])=C(C[N+]3(CCNC(=O)c4ccc(O)c(O)c4Cl)CCCC3)CS[C@H]12)c1csc(N)n1)C(=O)O [Cefiderocol, cefiderocol]
%fT > MIC for a MIC of 1 µg/mL [2]: 100% | %fT > MIC for a MIC of 2 µg/mL [2]: 99% | %fT > MIC for a MIC of 4 µg/mL [2]: 98% | %fT > MIC for a MIC of 8 µg/mL [2]: 76% | %fT > MIC for a MIC of 16 µg/mL [2]: 48% | %fT > MIC for a MIC of 32 µg/mL [2]: 11% | %fT > MIC for a MIC of 64 µg/mL [2]: 0% | %fT > MIC for a MIC of 128 µg/mL [2]: 0% | Human plasma protein binding [3]: 58% | Murine protein binding [5]: 31.6%
